Laboratory results as given in US8883714B2, “Pharmaceutical compositions comprising GPR119 agonists which act as peptide YY (PYY) secretagogues” (Arena Pharmaceuticals, Inc., priority 2008, dated 2014).

Tests used:
[1] = molecular target: T1, human GPR119 receptor (Homo sapiens, UniProt Q8TDV5); test: cAMP assay (Flash Plate adenylyl cyclase kit) in GPR119-transfected HEK293 cells; format: cell-based; conditions: GPR119-transfected HEK293 cells vs empty vector; 60 min at room temperature; FIG. 2
T1 construct: Full-Length Cloning of Endogenous Human GPR119; expressed in transfected cells; host or cells: HEK293 cells, transient transfection with Lipofectamine
T1 sequence (Q8TDV5 1-335): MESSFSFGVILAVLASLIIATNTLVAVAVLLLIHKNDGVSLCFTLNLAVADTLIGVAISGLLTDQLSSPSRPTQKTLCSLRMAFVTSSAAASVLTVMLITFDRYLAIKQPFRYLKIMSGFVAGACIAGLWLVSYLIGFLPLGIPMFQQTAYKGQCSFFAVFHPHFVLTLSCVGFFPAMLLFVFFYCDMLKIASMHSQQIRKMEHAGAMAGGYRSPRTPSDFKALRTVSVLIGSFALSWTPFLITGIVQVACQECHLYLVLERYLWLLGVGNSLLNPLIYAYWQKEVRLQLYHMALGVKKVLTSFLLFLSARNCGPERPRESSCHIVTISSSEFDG
Method: Briefly, HEK293 cells were transfected with either empty vector DNA (“Vector”) or human GPR119 receptor expression plasmid DNA (“GPR119”) using Lipofectamine (Invitrogen, Carlsbad, Calif.). After 24 h, transfected cells were harvested in GIBCO (Gaithersburg, Md.) cell dissociation buffer (Catalog no. 13151-014) and resuspended in assay buffer (50% 1×PBS/50% stimulation buffer). Compound 1 was incubated with 10^5 cells per well for 60 min at room temperature. After another 2-h incubation with tracer in detection buffer, plates were counted in a Wallac (Gaithersburg, Md.) MicroBeta scintillation counter. Values of cAMP per well were extrapolated from a standard cAMP curve that was included on each assay plate.

[2] = test system: plasma total PYY; test: Effect of oral GPR119 agonist on plasma total PYY in wild-type littermates (paper example); format: in vivo, wild-type mice; conditions: 20 mg/kg per orally; glucose bolus 3 g/kg; blood at 0 and 5 min
Method: (§1) GPR119-deficient male mice (Chu et al, Endocrinology (2007) 148:2601-2609) and wild-type littermates are fasted for 18 hours. Mice are administered per orally with vehicle (80% polyethylene glycol 400/10% ethanol/10% Tween 80) or with a GPR119 agonist in accordance with the present invention (Compound 1; (2-Fluoro-4-methanesulfonyl-phenyl)-{6-[4-(3-isopropyl-[1,2,4]oxadiazol-5-yl)-piperidin-1-yl]-5-nitro-pyrimidin-4-yl}-amine) at 20 mg/kg. Thirty minutes after treatment, blood (100 microliter) is collected via retro orbital vein of the eye (time 0 minutes) followed by a glucose bolus at 3 g/kg (per orally). Five minutes after delivering glucose, another blood sample (100 microliter) is collected (time 5 minutes). Plasma are collected after centrifugation and plasma total PYY levels are determined by using PYY EIA kit purchased from Phoenix Pharmaceuticals, Inc. (Peptide YY (PYY) (Rat, Mouse, Porcine, Canine) EIA kit, Catalog No. EK-059-03) according to instructions provided in the kit. It can be further shown that functional GPR119 receptor is necessary for the administered GPR119 agonist to increase plasma total PYY in the mice. […] Compound 1 is identical to a compound disclosed in International Patent Application No. PCT/US2004/001267 (published as WO 2004/065380).

[3] = test system: plasma total PYY; test: Effect of oral GPR119 agonist on plasma total PYY in wild-type mice (PYY EIA kit); format: in vivo, C57BL/6 male mice; conditions: 10 mg/kg per orally; fasted 18 h; glucose bolus 3 g/kg 30 min after treatment; blood at 0, 2, 5, 10 min; FIG. 3
Method: C57BL/6 male mice (approximately 8 weeks of age; obtained from Harlan, Indianapolis, Ind.) were fasted for 18 hours, and randomly assigned into eight groups with n=6 for each group. Mice were administered per orally with vehicle (80% polyethylene glycol 400/10% Tween 80/10% ethanol) or with a GPR119 agonist (Compound 1; (2-Fluoro-4-methanesulfonyl-phenyl)-{6-[4-(3-isopropyl-[1,2,4]oxadiazol-5-yl)-piperidin-1-yl]-5-nitro-pyrimidin-4-yl}-amine) at 10 mg/kg, as indicated in FIG. 3. Thirty minutes after treatment, a glucose bolus at 3 g/kg was delivered per orally, and blood was collected at 0 minute (no glucose bolus), 2 minutes, 5 minutes, and 10 minutes after glucose bolus. Plasma total PYY (inclusive of PYY1-36 and PYY3-36) levels were determined by using a PYY EIA kit purchased from Phoenix Pharmaceuticals, Inc. (Peptide YY (PYY) (Rat, Mouse, Porcine, Canine) EIA kit, Catalog No. EK-059-03) according to instructions provided in the kit. […] From the results shown in FIG. 3, it is apparent that the GPR119 agonist (Compound 1) stimulated plasma total PYY in the mice. Compound 1 is identical to a compound disclosed in International Patent Application No. PCT/US2004/001267 (published as WO 2004/065380).

[4] = test system: plasma total PYY; test: Effect of oral GPR119 agonist on plasma total PYY in GPR119-deficient (knockout) mice (paper example); format: in vivo, GPR119-deficient male mice; conditions: 20 mg/kg per orally; glucose bolus 3 g/kg; blood at 0 and 5 min
Method: as §1

[5] = humans, cited from earlier work

Compound	agonist activity at GPR119 receptor (stimulation of cAMP accumulation) [1]	effect on plasma total PYY in wild-type mice [2]	effect on plasma total PYY (inclusive of PYY1-36 and PYY3-36) [3]	effect on plasma total PYY in GPR119-deficient mice [4]	time of decline of serum PYY3-36 to basal levels ([5]; after infusion) [min]	time to peak serum levels of PYY3-36 ([5]; infusion to reach normal postprandial circulatory concentrations) [min]	reduction of food intake ([5]; infusion, over 24 hours) [%]
CC(C)c1noc(C2CCN(c3ncnc(Nc4ccc(S(C)(=O)=O)cc4F)c3[N+](=O)[O-])CC2)n1 [Compound 1, (2-Fluoro-4-methanesulfonyl-phenyl)-{6-[4-(3-isopropyl-[1,2,4]oxadiazol-5-yl)-piperidin-1-yl]-5-nitro-pyrimidin-4-yl}-amine]	agonist of GPR119 receptor	stimulate plasma total PYY in the wild-type mice	increased plasma total PYY	not in the GPR119-deficient mice	–	–	–
PYY3-36: generated from PYY1-36 by cleavage of the N-terminal Tyr and Pro residues by dipeptidyl peptidase IV; high-affinity Y2R selective agonist	–	–	–	–	≤ 30	≤ 15	33
